PubChem BioAssay (NCI)
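Exposure lasted 48 hours, with cells grown in 96-well plates and compounds tested at five concentrations. Here, GI50 denotes the concentration required for 50% inhibition of growth. TGI: concentration producing complete growth inhibition.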

Columns and labels:
Experiment in all cases: inhibition of tumour cell growth, NCI panel, 48 h
SF-268 CNS = tested on: SF-268 CNS
HCT-15 colon = tested on: HCT-15 colon
COLO 205 colon = tested on: COLO 205 colon
OVCAR-8 ovarian = tested on: OVCAR-8 ovarian
ACHN renal = tested on: ACHN renal
OVCAR-4 ovarian = tested on: OVCAR-4 ovarian
PC-3 prostate = tested on: PC-3 prostate
TK-10 renal = tested on: TK-10 renal
LOX IMVI melanoma = tested on: LOX IMVI melanoma
EKVX NSCLC = tested on: EKVX NSCLC
HCT-116 colon = tested on: HCT-116 colon
UO-31 renal = tested on: UO-31 renal
SF-295 CNS = tested on: SF-295 CNS
UACC-257 melanoma = tested on: UACC-257 melanoma
K-562 leukemia = tested on: K-562 leukemia
CCRF-CEM leukemia = tested on: CCRF-CEM leukemia
SN12C renal = tested on: SN12C renal
SK-MEL-2 melanoma = tested on: SK-MEL-2 melanoma
A549 NSCLC = tested on: A549 NSCLC
SF-539 CNS = tested on: SF-539 CNS
SNB-75 CNS = tested on: SNB-75 CNS
HL-60(TB) leukemia = tested on: HL-60(TB) leukemia
DU-145 prostate = tested on: DU-145 prostate
OVCAR-5 ovarian = tested on: OVCAR-5 ovarian
SNB-19 CNS = tested on: SNB-19 CNS
MDA-MB-231 breast = tested on: MDA-MB-231 breast
MCF7 breast = tested on: MCF7 breast
NCI/ADR-RES ovarian = tested on: NCI/ADR-RES ovarian
KM12 colon = tested on: KM12 colon
RPMI-8226 leukemia = tested on: RPMI-8226 leukemia
HCC-2998 colon = tested on: HCC-2998 colon
OVCAR-3 ovarian = tested on: OVCAR-3 ovarian
HOP-92 NSCLC = tested on: HOP-92 NSCLC
NCI-H460 lung = tested on: NCI-H460 lung
SK-MEL-5 melanoma = tested on: SK-MEL-5 melanoma
NCI-H23 lung = tested on: NCI-H23 lung
IGROV1 ovarian = tested on: IGROV1 ovarian
BT-549 breast = tested on: BT-549 breast
MDA-MB-435 = tested on: MDA-MB-435
786-0 renal = tested on: 786-0 renal
M14 melanoma = tested on: M14 melanoma
SK-MEL-28 melanoma = tested on: SK-MEL-28 melanoma
MOLT-4 leukemia = tested on: MOLT-4 leukemia
T-47D breast = tested on: T-47D breast
A498 renal = tested on: A498 renal
HT29 colon = tested on: HT29 colon
HS 578T breast = tested on: HS 578T breast
NCI-H226 lung = tested on: NCI-H226 lung
SR leukemia = tested on: SR leukemia
CAKI-1 renal = tested on: CAKI-1 renal
RXF 393 renal = tested on: RXF 393 renal
MALME-3M melanoma = tested on: MALME-3M melanoma
HOP-62 NSCLC = tested on: HOP-62 NSCLC
U251 CNS = tested on: U251 CNS
SW-620 colon = tested on: SW-620 colon
NCI-H522 lung = tested on: NCI-H522 lung
UACC-62 melanoma = tested on: UACC-62 melanoma
SK-OV-3 ovarian = tested on: SK-OV-3 ovarian

With Cn1cc(-c2ccc3nnc(Sc4ccc5ncccc5c4)n3n2)cn1 the GI50 (SF-268 CNS) was 60.2 µM, the TGI (SF-268 CNS) was > 100 µM and the GI50 (HCT-15 colon) was > 100 µM. For the same compound, the TGI (HCT-15 colon) was > 100 µM, the GI50 (COLO 205 colon) was 30.4 µM and the TGI (COLO 205 colon) was > 100 µM. The GI50 (OVCAR-8 ovarian) was 66.7 µM, the TGI (OVCAR-8 ovarian) was > 100 µM and the GI50 (ACHN renal) was 54.1 µM. The TGI (ACHN renal) was > 100 µM, the GI50 (OVCAR-4 ovarian) was > 100 µM and the TGI (OVCAR-4 ovarian) was > 100 µM. The GI50 (PC-3 prostate) was > 92.7 µM, the TGI (PC-3 prostate) was > 100 µM and the GI50 (TK-10 renal) was 40.7 µM. The TGI (TK-10 renal) was > 100 µM, the GI50 (LOX IMVI melanoma) was 57.8 µM and the TGI (LOX IMVI melanoma) was > 100 µM. For the same compound, the GI50 (EKVX NSCLC) was 97 µM, the TGI (EKVX NSCLC) was > 100 µM and the GI50 (HCT-116 colon) was 53 µM. The TGI (HCT-116 colon) was > 100 µM, the GI50 (UO-31 renal) was 61.9 µM and the TGI (UO-31 renal) was > 100 µM. The GI50 (SF-295 CNS) was 2.06 µM, the TGI (SF-295 CNS) was > 100 µM and the GI50 (UACC-257 melanoma) was > 100 µM. For the same compound, the TGI (UACC-257 melanoma) was > 100 µM, the GI50 (K-562 leukemia) was 38.4 µM and the TGI (K-562 leukemia) was > 100 µM. For the same compound, the GI50 (CCRF-CEM leukemia) was 51.6 µM, the TGI (CCRF-CEM leukemia) was > 100 µM and the GI50 (SN12C renal) was > 73.9 µM. The TGI (SN12C renal) was > 100 µM, the GI50 (SK-MEL-2 melanoma) was 48.4 µM and the TGI (SK-MEL-2 melanoma) was > 100 µM. The GI50 (A549 NSCLC) was > 86 µM, the TGI (A549 NSCLC) was > 100 µM and the GI50 (SF-539 CNS) was > 93.4 µM. For the same compound, the TGI (SF-539 CNS) was > 100 µM, the GI50 (SNB-75 CNS) was 26.1 µM and the TGI (SNB-75 CNS) was > 100 µM. For the same compound, the GI50 (HL-60(TB) leukemia) was > 100 µM, the TGI (HL-60(TB) leukemia) was > 100 µM and the GI50 (DU-145 prostate) was 73.3 µM. For the same compound, the TGI (DU-145 prostate) was > 100 µM, the GI50 (OVCAR-5 ovarian) was 61.9 µM and the TGI (OVCAR-5 ovarian) was > 100 µM. For the same compound, the GI50 (SNB-19 CNS) was 47.3 µM, the TGI (SNB-19 CNS) was > 100 µM and the GI50 (MDA-MB-231 breast) was 24.4 µM. The TGI (MDA-MB-231 breast) was 96.9 µM, the GI50 (MCF7 breast) was 97.5 µM and the TGI (MCF7 breast) was > 100 µM. The GI50 (NCI/ADR-RES ovarian) was > 100 µM, the TGI (NCI/ADR-RES ovarian) was > 100 µM and the GI50 (KM12 colon) was > 100 µM. For the same compound, the TGI (KM12 colon) was > 100 µM, the GI50 (RPMI-8226 leukemia) was 41.2 µM and the TGI (RPMI-8226 leukemia) was > 100 µM. For the same compound, the GI50 (HCC-2998 colon) was > 100 µM, the TGI (HCC-2998 colon) was > 100 µM and the GI50 (OVCAR-3 ovarian) was > 91.4 µM. For the same compound, the TGI (OVCAR-3 ovarian) was > 100 µM, the GI50 (HOP-92 NSCLC) was 7.07 µM and the TGI (HOP-92 NSCLC) was > 71.4 µM. For the same compound, the GI50 (NCI-H460 lung) was 79.2 µM, the TGI (NCI-H460 lung) was > 100 µM and the GI50 (SK-MEL-5 melanoma) was > 74.3 µM. For the same compound, the TGI (SK-MEL-5 melanoma) was > 100 µM, the GI50 (NCI-H23 lung) was 56 µM and the TGI (NCI-H23 lung) was > 100 µM. The GI50 (IGROV1 ovarian) was > 88.6 µM, the TGI (IGROV1 ovarian) was > 100 µM and the GI50 (BT-549 breast) was 48.7 µM. For the same compound, the TGI (BT-549 breast) was > 100 µM, the GI50 (MDA-MB-435) was > 100 µM and the TGI (MDA-MB-435) was > 100 µM. The GI50 (786-0 renal) was > 100 µM, the TGI (786-0 renal) was > 100 µM and the GI50 (M14 melanoma) was > 100 µM. The TGI (M14 melanoma) was > 100 µM, the GI50 (SK-MEL-28 melanoma) was > 100 µM and the TGI (SK-MEL-28 melanoma) was > 100 µM. For the same compound, the GI50 (MOLT-4 leukemia) was > 100 µM, the TGI (MOLT-4 leukemia) was > 100 µM and the GI50 (T-47D breast) was 99.3 µM. The TGI (T-47D breast) was > 100 µM, the GI50 (A498 renal) was > 23 µM and the TGI (A498 renal) was > 93.1 µM. The GI50 (HT29 colon) was > 100 µM, the TGI (HT29 colon) was > 100 µM and the GI50 (HS 578T breast) was 10.4 µM. For the same compound, the TGI (HS 578T breast) was > 72.1 µM, the GI50 (NCI-H226 lung) was > 59.1 µM and the TGI (NCI-H226 lung) was > 100 µM. For the same compound, the GI50 (SR leukemia) was 68.1 µM, the TGI (SR leukemia) was > 100 µM and the GI50 (CAKI-1 renal) was 40.8 µM. For the same compound, the TGI (CAKI-1 renal) was > 100 µM, the GI50 (RXF 393 renal) was 26.6 µM and the TGI (RXF 393 renal) was > 100 µM. For the same compound, the GI50 (MALME-3M melanoma) was > 100 µM, the TGI (MALME-3M melanoma) was > 100 µM and the GI50 (HOP-62 NSCLC) was 30.9 µM. For the same compound, the TGI (HOP-62 NSCLC) was > 100 µM, the GI50 (U251 CNS) was 28.5 µM and the TGI (U251 CNS) was > 100 µM. For the same compound, the GI50 (SW-620 colon) was > 100 µM, the TGI (SW-620 colon) was > 100 µM and the GI50 (NCI-H522 lung) was > 100 µM. For the same compound, the TGI (NCI-H522 lung) was > 100 µM, the GI50 (UACC-62 melanoma) was > 100 µM and the TGI (UACC-62 melanoma) was > 100 µM. The GI50 (SK-OV-3 ovarian) was > 73.9 µM and the TGI (SK-OV-3 ovarian) was > 100 µM.
